From the supplement of paper PMC10307832

Experiments:
Experiment in all cases: relative viability (nuclei count vs DMSO), 5 days (fraction); higher = more cells survive
OSI-027 + Alpelisib = compound: COc1cccc2cc(-c3nc([C@H]4CC[C@H](C(=O)O)CC4)n4ncnc(N)c34)[nH]c12 [OSI-027] + Cc1nc(NC(=O)N2CCC[C@H]2C(N)=O)sc1-c1ccnc(C(C)(C)C(F)(F)F)c1 [Alpelisib] (partner 2 µM)
In short: (§1)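 The day after seeding in 1536-well plates, lung cancer cell lines were treated by pin tool with a single drug, or with a fixed anchor-drug dose together with five library-drug doses (not always all listed) in √10 steps. After 5 days, a combined fix-and-stain solution (final 0.05% Triton X-100, 1% formaldehyde, 1 ug/ml Hoechst) was added. Nuclei counted on 4× images gave relative viability as treated counts over vehicle counts, reported as the median of duplicate plates.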

Alpelisib + Luminespib = compound: Cc1nc(NC(=O)N2CCC[C@H]2C(N)=O)sc1-c1ccnc(C(C)(C)C(F)(F)F)c1 [Alpelisib] + CCNC(=O)c1noc(-c2cc(C(C)C)c(O)cc2O)c1-c1ccc(CN2CCOCC2)cc1 [Luminespib] (partner 0.01 µM)
In short: as §1

Vemurafenib + Trametinib = compound: CCCS(=O)(=O)Nc1ccc(F)c(C(=O)c2c[nH]c3ncc(-c4ccc(Cl)cc4)cc23)c1F [Vemurafenib] + CC(=O)Nc1cccc(-n2c(=O)n(C3CC3)c(=O)c3c(Nc4ccc(I)cc4F)n(C)c(=O)c(C)c32)c1 [Trametinib] (partner 0.02 µM)
In short: as §1

Alpelisib + Lapatinib = compound: Cc1nc(NC(=O)N2CCC[C@H]2C(N)=O)sc1-c1ccnc(C(C)(C)C(F)(F)F)c1 [Alpelisib] + CS(=O)(=O)CCNCc1ccc(-c2ccc3ncnc(Nc4ccc(OCc5cccc(F)c5)c(Cl)c4)c3c2)o1 [Lapatinib] (partner 2 µM)
In short: as §1

Cell Line	relative viability (OSI-027 + Alpelisib; first compound 0.01 µM)	relative viability (OSI-027 + Alpelisib; first compound 0.03162 µM)	relative viability (OSI-027 + Alpelisib; first compound 0.1 µM)	relative viability (OSI-027 + Alpelisib; first compound 0.3162 µM)	relative viability (OSI-027 + Alpelisib; first compound 1 µM)	relative viability (Alpelisib + Luminespib; first compound 0.04 µM)	relative viability (Alpelisib + Luminespib; first compound 0.1265 µM)	relative viability (Alpelisib + Luminespib; first compound 0.4 µM)	relative viability (Alpelisib + Luminespib; first compound 1.265 µM)	relative viability (Alpelisib + Luminespib; first compound 4 µM)	relative viability (Vemurafenib + Trametinib; first compound 0.3162 µM)	relative viability (Vemurafenib + Trametinib; first compound 1 µM)	relative viability (Alpelisib + Lapatinib; first compound 0.04 µM)	relative viability (Alpelisib + Lapatinib; first compound 0.1265 µM)	relative viability (Alpelisib + Lapatinib; first compound 0.4 µM)	relative viability (Alpelisib + Lapatinib; first compound 1.265 µM)	relative viability (Alpelisib + Lapatinib; first compound 4 µM)	relative viability (Vemurafenib + Trametinib; first compound 0.1 µM)	relative viability (Vemurafenib + Trametinib; first compound 0.03162 µM)
PC-3 [JPC-3]	1.06	1.03	0.986	0.802	0.43	0.731	0.567	0.739	0.687	0.622	0.649	0.802	0.438	0.555	0.404	0.424	0.394		
NCI-H1648											0.569	0.58						0.326	
NCI-H1651	1.1		0.882	0.713	0.559	0.78	1.05	1	0.78	0.666	0.773	0.827	0.773	0.803	0.943	0.646	0.618	0.741	0.805
NCI-H596	0.432	0.534	0.503	0.503	0.354	0.832	0.884	0.87	0.599	0.424	0.885	0.888	0.98	1.02	0.825	0.54	0.413	0.723	0.792
HARA	0.81	0.655	0.785	0.495	0.291	0.406	0.955	0.896	0.515	0.341	0.71	0.757	0.747	0.699	0.46	0.305	0.209	0.325	0.742
NCI-H727	0.567	0.63	0.491	0.419	0.378	0.419	0.444	0.3	0.371	0.345	0.487	0.399	0.831	0.766	0.906	0.578	0.443	0.374	0.407
Calu-6	0.917	0.974	0.75	0.697	0.42								1.1	1.09	1.12	0.996	0.952		
NCI-H1993	0.647	0.646	0.562	0.533	0.655	0.751	0.744	0.758	0.476	0.503	0.555	0.609	0.775	0.676	0.913	0.774	0.711		0.5
HCC-366	0.373	0.423	0.256	0.243	0.1							0.376	1.04	1.02	1.14	0.824	0.535	0.193	0.346
IA-LM	0.791	0.686	0.455	0.322	0.113								0.977	0.802	0.842	0.708	0.74		
EPLC-272H	0.889	0.866	0.828	0.619	0.599	0.74	0.253	0.155	0.19	0.164	0.338	0.331	0.859	0.842	0.805	0.7	0.525	0.323	0.282
NCI-H441	0.716	0.718	0.686	0.636	0.273	0.395	0.324	0.333	0.272	0.312	0.611	0.472						0.431	0.434
NCI-H1793	0.831	0.589	0.466	0.307	0.189	0.194	0.177	0.154	0.165	0.179	0.467	0.591	0.647	0.642	0.637	0.513	0.613	0.387	0.397
201T	0.998	1	0.963	0.919	0.545	1.08	1.02	1.02	0.961	0.956	0.752	0.779	1.02	0.988	1.02	1.01	0.945	0.681	0.702
NCI-H460	0.541	0.404	0.314	0.168	0.119	0.0253	0.0415	0.0319	0.0281	0.0206	0.138	0.218	1.02	0.948	1.03	0.662	0.439	0.131	0.137
NCI-H1666	0.869	1.02	0.658	0.43	0.488	0.973	1.03	1.12	0.921	0.965	1.04	0.86	0.668	0.381	0.682	0.475	0.356	0.786	0.928
HOP-62	1.13	0.881	0.934	0.81	0.333	0.943	0.957	1.04	0.83	0.956	0.416	0.594	1.03	0.775	1.02	0.826	0.794	0.36	0.419
SW 1573	0.738	0.76	0.661	0.669	0.39	0.175	0.215	0.285	0.198	0.115	0.679	0.49	1.06	1.06	1.06	1.09	0.873	0.612	0.556
NCI-H2085	0.927	0.925	0.835	0.727	0.592	0.504	0.419	0.46	0.415	0.364	0.663	0.621	0.742	0.624	0.839	0.635	0.623	0.477	0.529
ABC-1	0.98	0.921	0.903	0.628	0.537	0.432	0.932	0.554	0.228	0.391			0.943	0.988	1.17	0.706	0.717		
NCI-H1299	1.11	1.05	1.12	1.08	0.786								0.977	0.981	0.997	1.03	1.02		

Cell Line	relative viability (OSI-027 + Alpelisib; first compound 0.01 µM)	relative viability (OSI-027 + Alpelisib; first compound 0.03162 µM)	relative viability (OSI-027 + Alpelisib; first compound 0.1 µM)	relative viability (OSI-027 + Alpelisib; first compound 0.3162 µM)	relative viability (OSI-027 + Alpelisib; first compound 1 µM)	relative viability (Alpelisib + Luminespib; first compound 0.04 µM)	relative viability (Alpelisib + Luminespib; first compound 0.1265 µM)	relative viability (Alpelisib + Luminespib; first compound 0.4 µM)	relative viability (Alpelisib + Luminespib; first compound 1.265 µM)	relative viability (Alpelisib + Luminespib; first compound 4 µM)	relative viability (Vemurafenib + Trametinib; first compound 0.3162 µM)	relative viability (Vemurafenib + Trametinib; first compound 1 µM)	relative viability (Alpelisib + Lapatinib; first compound 0.04 µM)	relative viability (Alpelisib + Lapatinib; first compound 0.1265 µM)	relative viability (Alpelisib + Lapatinib; first compound 0.4 µM)	relative viability (Alpelisib + Lapatinib; first compound 1.265 µM)	relative viability (Alpelisib + Lapatinib; first compound 4 µM)	relative viability (Vemurafenib + Trametinib; first compound 0.1 µM)	relative viability (Vemurafenib + Trametinib; first compound 0.03162 µM)
LU99A	0.486	0.455	0.312	0.193	0.204	0.298	0.216	0.249	0.226	0.247		0.664	0.873	0.917	1.02	0.666	0.56	0.563	0.521
NCI-H2009	1.14	1.14	1.07	0.999	0.568	0.995	0.999	1.14	1.06	1.08	0.21	0.372	0.99	1	1.11	0.89	0.889	0.272	0.269
LCLC-97TM1	0.208	0.207	0.203	0.145	0.123	0.852	0.707	0.705	0.279	0.23	0.201	0.268	0.75	0.854	0.656	0.686	0.387	0.184	
NCI-H1915	1.11	1.12	1.13	0.956	0.605	0.738	0.725	0.829	0.643	0.766	0.328	0.358	1.01	0.979	0.957	0.949	0.944	0.26	0.308
NCI-H2342						0.762	0.696	0.686	0.568	0.488	0.978	0.769						0.747	0.921
EKVX	0.731	0.849	0.73	0.625	0.351	0.877	0.712	0.961	0.844	0.552	0.406	0.476	0.195	0.34	0.184	0.174	0.175		0.316
HCC-78	0.337	0.3	0.248	0.14	0.163						1.06	0.838	0.619	0.39	1.07	0.659	0.413	0.609	0.783
A549	0.718	0.612	0.727	0.361	0.131								0.915	0.857	0.866	0.637	0.53		
NCI-H2126	0.764	0.69	0.694	0.603	0.399	0.946	0.848	0.854	0.776	0.667	0.564	0.543	0.75	0.704	0.701	0.567	0.499	0.535	0.513
HCC-827	0.871	1.03	0.921	0.736	0.281	0.703	0.594	0.586	0.406	0.215	0.73	0.585	0.19	0.192	0.211	0.179	0.188		0.52
NCI-H1650						0.208	0.192	0.24	0.19	0.18	0.633	0.577	0.718	0.738	0.806	0.62	0.794	0.406	0.595
NCI-H1703	0.32	0.285	0.284	0.279	0.238								0.949	0.886	0.789	0.526	0.678		
LK-2	1.18	0.835	0.84	0.321	0.165	0.139	0.159	0.196	0.191	0.176	1.12	0.607	0.871	0.763	0.768	0.474	0.564	0.693	0.889
LCLC-103H	0.852	0.922	0.991	0.877	0.767	0.97	0.993	1.04	0.72	0.735	0.685	0.768						0.619	0.668
EBC-1	0.79	0.909	0.823	0.478	0.343								0.21	0.184	0.211	0.238	0.232		
SW 900						0.163	0.168	0.177	0.138	0.173	0.778	0.868						0.593	0.939
NCI-H1563	0.983	0.888	0.82	0.673	0.759	0.488	0.479	0.404	0.503	0.462			0.873	0.941	1.03	0.857	0.868		
NCI-H522						1.09	1.21	1.13	0.881	0.981	0.786	0.783						0.63	0.695
NCI-H1623						0.487	0.374	0.477	0.385	0.417									
ChaGo-K-1						0.61	0.488	0.706	0.585	0.507	0.868	0.898						0.875	0.834
